B1: hLAL: human lysosomal acid lipase expressed from a doxycycline-controlled tissue-specific transgene in lal−/− mice; never administered as a protein (protein)
chain: GPKPVVFLQHGLLADSSNWVTNLANSSLGFILADAGFDVWMGNSRGNTWSRKHKTLSVSQDEFWAFSYDEMAKYDLPASINFILNKTGQEQVYYVGHSQGTTIGFIAFSQIPELAKRIKMFFALGPVASVAFCTSPMAKLGRLPDHLIKDLFGDKEFLPQSAFLKWLGTHVCTHVILKELCGNLCFLLCGFNERNLNMSRVDVYTTHSPAGTSVQNMLHWSQAVKFQKFQAFDWGSSAKNYFHYNQSYPPTYNVKDMLVPTAVWSGGHDWLADVYDVNILLTQITNLVFHESIPEWEHLDFIWGLDAPWRLYNKIINLMRKYQ
modifications: left off: small tags and cut ends
notes: human lysosomal acid lipase expressed from a doxycycline-controlled tissue-specific transgene in lal−/− mice; never administered as a protein

Assays:
[1] = system: Lewis lung cancer (LLC) cells; assay: In vitro co-culture of pre-treated MDSCs and LLC cells; format: cell-based, mouse; details: lal−/− Ly6G+ cells pre-treated 20 μmol/L 24 hours; 72 hours co-culture
B16 melanoma cells [2] = assay: In vitro migration (wound healing) assay with pre-treated MDSCs; format: cell-based, mouse; details: co-culture with pre-treated lal−/− Ly6G+ cells; 24 hours; mitomycin C
Procedure: In vitro wound healing assay was performed to analyze B16 melanoma cell migration. Briefly, B16 melanoma cells were seeded at a density of 1.5×10^5 cells/well into a 24-well plate and incubated overnight to form a confluent monolayer. Scratch was created by scraping the cell monolayer in a straight line with a p200 pipet tip. After washing 3 times with DMEM, the medium was changed with DMEM containing 10% FBS and 5 μg/mL mitomycin C (Sigma-Aldrich, St. Louis, Mo., USA), and MDSCs pre-treated with 9-HODE or ethanol for 24 hours were added onto B16 melanoma cell monolayer at a density of 1×10^6 cells/well. Images were taken at 0 and 24 hours after creating the scratch. Migration was estimated by measuring the distances from one side of scratch to the other side using Image Pro-Plus software (Media Cybernetics, Rockville, Md., USA).

mTOR pathway = assay: Flow cytometry of mTOR pathway in gated Ly6G+CD11b+ bone marrow cells; format: cell-based, mouse; details: 20 μmol/L, 2 hours
Procedure: For in vitro PPARγ ligand treatment, 9-HODE (Cayman Chemical Co., Ann Arbor, Mich., USA) was added into the culture medium of MDSCs to a final concentration of 20 μmol/L for 24 or 48 hours. For the study of the effect of PPARγ ligand on the mTOR signaling pathway, bone marrow cells were treated with 9-HODE (20 μmol/L) for 2 hours.
Single cells from the bone marrow of 5-month-old lal^+/+ and lal^−/− mice were prepared as described in Qu et al., Cancer Res. 2009; 69:7252-7261. After 20 μmol/L 9-HODE treatment for 2 hours, cells were harvested, and labeled with anti-Ly6G and CD11b cell surface antibody (eBioscience) at 4° C. for 15 minutes. Cells were then fixed and permeabilized using BD Cytofix/Cytoperm Fixation/Permeabilization Kit (BD Biosciences) according to the manufacturer's instructions, and incubated with Alexa Fluor 647-conjugated anti-mTOR antibody, Alexa Fluor 488-conjugated anti-S6 antibody, Alexa Fluor 488-conjugated anti-pS6 (Ser235/236) antibody, and rabbit anti-pmTOR (Ser2448) antibody (Cell Signaling Technology, Beverly, Mass., USA) at 4° C. overnight. For anti-pmTOR antibody staining, cells were incubated with Alexa Fluor 647-conjugated anti-rabbit IgG in the following day. Cells were washed and ready for flow cytometry analysis. Mean fluorescence intensities of the proteins in the gated Ly6G^+CD11b^+ area were analyzed. For flow cytometry analysis, ≥10,000 cells were acquired and scored using a LSRII machine (BD Biosciences). Data were processed using the CellQuest software program (BD Biosciences).

B16 melanoma cells [3] = assay: B16 melanoma metastasis in LAP-Tg/KO mice; format: in vivo, mouse; details: hepatocyte-specific expression in lal−/− mice; 5×10^5 cells i.v., two weeks
Excerpt: (§1) LAP-tTA/(TetO)7-CMV-hLAL; lal^−/− (LAP-Tg/KO) triple mice of the FVB/N background was established by cross-breeding of LAP-tTA transgenic mice (Jackson's Laboratory, Bar Harbor, Me.) with a previously generated (tetO)7-CMV-hLAL transgenic mice into lal^−/− mice. This triple transgenic mouse model was hepatocyte-specific Tet-off expression of wild-type hLAL in lal^−/− mice under the control of the LAP. All scientific protocols that involved the use of animals were approved by the Institutional Animal Care and Use Committee of Indiana University School of Medicine and followed guidelines established by the Panel on Euthanasia of the American Veterinary Medical Association. Animals were housed in a secured animal facility at Indiana University School of Medicine.
Tissues from the liver, intestine, and lung were collected after mice were anesthetized. All tissues were washed with phosphate-buffered saline and dehydrated by a series of increasing ethanol concentrations, followed by paraffin embedding. Sections were stained with anti-Ki67 antibody, anti-LAL antibody, and anti-F4/80 antibody by the histologic core.
For experimental metastasis, 5×10^5 B16 melanoma cells in 200 μL of phosphate-buffered saline were injected into the mice via tail vein. Two weeks after the injection, the mice were sacrificed, and the livers and lungs were harvested for examination of metastasis.

[4] = Tissue lipid storage in LAP-Tg/KO mice (hepatocyte-specific hLAL expression); format: in vivo, mouse; details: hepatocyte transgenic expression in lal−/− mice (doxycycline-untreated LAP-Tg/KO)
Excerpt: as §1
Total tissue lipids were extracted from the liver and small intestine by the Folch method (Folch et al., J Biol. Chem 1957, […]:497-509). Concentrations of CEs and TGs were determined as described in Due et al., J Lipid Res 2001, 42:489-500 and Du et al., J Immunol 2009, 182:1648-1659).
Frozen tissue sections were prepared from the liver and intestine after a standard cryostat procedure. Tissue section slides were stained with Oil Red-O solution (0.5% in propylene glycol) in a 60° C. oven for 10 minutes and placed in 85% propylene glycol for 1 minute; slides were counter-stained in hematoxylin.

[5] = Histology and morphometry of organs in CCSP-Tg/KO mice (lung epithelial hLAL expression); format: in vivo, mouse
Excerpt: Wild-type (lal^+/+) and lal^−/− mice of the FVB/N background were bred in house. CCSP-rtTA/(TetO)7-CMV-hLAL; lal^−/− (CCSP-Tg/KO) triple mice were generated by crossbreeding previously made CCSP-rtTA transgenic mice and (TetO)7-CMV-hLAL transgenic mice into lal^−/− mice. This triple transgenic mouse model is lung AT II epithelial cells-specific Tet-on expression of wild-type human LAL (hLAL) in lal^−/− mice under the control of the CCSP promoter. All scientific protocols involving the use of animals were approved by the Institutional Animal Care and Use Committee of Indiana University School of Medicine and followed guidelines established by the Panel on Euthanasia of the American Veterinary Medical Association. Animals were housed under Institutional Animal Care and Use Committee-approved conditions in a secured animal facility at Indiana University School of Medicine.
The lungs were harvested and fixed with 4% paraformaldehyde in PBS at 4° C. overnight. After embedding in paraffin, tissue sections were cut to 5 μm thick. Hematoxylin and eosin (H&E) staining was performed by the Histological Core Facility, Department of Pathology and Laboratory Medicine, Indiana University. […] Images were analyzed by Nikon NIS Elements imaging software. […] The alveoli were assessed by area, diameter and perimeter using the integrated morphometry analysis tool. […]

Molecule | proliferation of LLC cells upon co-culture [1] | B16 melanoma cell migration into wound area (B16 melanoma cells [2]) | phosphorylation of S6 (MFI) (mTOR pathway; gated lal−/− Ly6G+CD11b+ cells) | phosphorylation of mTOR (MFI) (mTOR pathway; gated lal−/− Ly6G+CD11b+ cells) | overall levels of mTOR and S6 (mTOR pathway; lal−/− MDSCs) | B16 melanoma cell metastasis in liver and lung (B16 melanoma cells [3]) | lipid storage (cholesterol and triglyceride) in liver, spleen and small intestine [4] | liver and spleen pathology ([5]; doxycycline-treated vs untreated CCSP-Tg/KO mice) | lung damage (emphysema, alveolar area, diameter, perimeter) ([5]; lung epithelial expression, doxycycline-treated CCSP-Tg/KO mice)
9-hydroxyoctadecadienoic acid [9-HODE] | reduced proliferation of LLC cells | delayed migration towards the scratch | decreased phosphorylation of S6 | decreased phosphorylation of mTOR | reduced the overall levels of mTOR and S6 | – | – | – | –
B1 | – | – | – | – | – | reduced B16 melanoma cell metastasis | completely cleaned up | no improvement in the liver and spleen | partially restored

From patent US10857209B2, “Lysosomal acid lipase and PPAR gamma ligands as immune therapies for cancer treatment” (Indiana University Research and Technology Corporation, priority 2016, dated 2020)
